Measurements reported in publication PMC4979471 (Cell Death Discovery, 2015).
Read-outs that look alike come from different tables or passages of the source.

Assays:
Test in all cases: Kinase selectivity, P33-radiolabeled assay
Type in all cases: biochemical
Details in all cases: 10 μM ATP
[1] = target: T1, DYRK2 (Homo sapiens, UniProt Q92630)
T1 construct: purchased Reaction Biology Corp
T1 sequence (Q92630 1-601): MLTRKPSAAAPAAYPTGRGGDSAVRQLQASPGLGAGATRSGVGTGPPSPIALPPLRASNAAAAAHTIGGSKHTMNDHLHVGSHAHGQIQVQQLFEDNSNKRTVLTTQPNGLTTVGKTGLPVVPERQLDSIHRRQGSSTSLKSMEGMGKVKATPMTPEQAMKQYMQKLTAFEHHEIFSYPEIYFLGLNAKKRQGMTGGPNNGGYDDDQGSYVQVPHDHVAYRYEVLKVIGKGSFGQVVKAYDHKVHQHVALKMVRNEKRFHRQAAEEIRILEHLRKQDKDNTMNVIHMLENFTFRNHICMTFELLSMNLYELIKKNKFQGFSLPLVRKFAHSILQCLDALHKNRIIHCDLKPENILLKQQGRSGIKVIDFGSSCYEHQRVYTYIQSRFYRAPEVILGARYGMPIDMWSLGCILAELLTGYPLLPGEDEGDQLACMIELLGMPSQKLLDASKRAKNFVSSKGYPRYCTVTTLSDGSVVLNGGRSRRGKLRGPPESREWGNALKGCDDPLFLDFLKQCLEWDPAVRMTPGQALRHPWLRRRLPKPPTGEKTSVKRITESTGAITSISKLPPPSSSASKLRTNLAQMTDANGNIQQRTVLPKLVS
Outline: (§1)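 ATP at 10 μM; test article at 10 μM, single point, two replicates. Output is activity as % of DMSO.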

[2] = target: T2, MRCKb/CDC42BPB (Homo sapiens, UniProt Q9Y5S2)
T2 construct: purchased Reaction Biology Corp
T2 sequence (Q9Y5S2 whole entry): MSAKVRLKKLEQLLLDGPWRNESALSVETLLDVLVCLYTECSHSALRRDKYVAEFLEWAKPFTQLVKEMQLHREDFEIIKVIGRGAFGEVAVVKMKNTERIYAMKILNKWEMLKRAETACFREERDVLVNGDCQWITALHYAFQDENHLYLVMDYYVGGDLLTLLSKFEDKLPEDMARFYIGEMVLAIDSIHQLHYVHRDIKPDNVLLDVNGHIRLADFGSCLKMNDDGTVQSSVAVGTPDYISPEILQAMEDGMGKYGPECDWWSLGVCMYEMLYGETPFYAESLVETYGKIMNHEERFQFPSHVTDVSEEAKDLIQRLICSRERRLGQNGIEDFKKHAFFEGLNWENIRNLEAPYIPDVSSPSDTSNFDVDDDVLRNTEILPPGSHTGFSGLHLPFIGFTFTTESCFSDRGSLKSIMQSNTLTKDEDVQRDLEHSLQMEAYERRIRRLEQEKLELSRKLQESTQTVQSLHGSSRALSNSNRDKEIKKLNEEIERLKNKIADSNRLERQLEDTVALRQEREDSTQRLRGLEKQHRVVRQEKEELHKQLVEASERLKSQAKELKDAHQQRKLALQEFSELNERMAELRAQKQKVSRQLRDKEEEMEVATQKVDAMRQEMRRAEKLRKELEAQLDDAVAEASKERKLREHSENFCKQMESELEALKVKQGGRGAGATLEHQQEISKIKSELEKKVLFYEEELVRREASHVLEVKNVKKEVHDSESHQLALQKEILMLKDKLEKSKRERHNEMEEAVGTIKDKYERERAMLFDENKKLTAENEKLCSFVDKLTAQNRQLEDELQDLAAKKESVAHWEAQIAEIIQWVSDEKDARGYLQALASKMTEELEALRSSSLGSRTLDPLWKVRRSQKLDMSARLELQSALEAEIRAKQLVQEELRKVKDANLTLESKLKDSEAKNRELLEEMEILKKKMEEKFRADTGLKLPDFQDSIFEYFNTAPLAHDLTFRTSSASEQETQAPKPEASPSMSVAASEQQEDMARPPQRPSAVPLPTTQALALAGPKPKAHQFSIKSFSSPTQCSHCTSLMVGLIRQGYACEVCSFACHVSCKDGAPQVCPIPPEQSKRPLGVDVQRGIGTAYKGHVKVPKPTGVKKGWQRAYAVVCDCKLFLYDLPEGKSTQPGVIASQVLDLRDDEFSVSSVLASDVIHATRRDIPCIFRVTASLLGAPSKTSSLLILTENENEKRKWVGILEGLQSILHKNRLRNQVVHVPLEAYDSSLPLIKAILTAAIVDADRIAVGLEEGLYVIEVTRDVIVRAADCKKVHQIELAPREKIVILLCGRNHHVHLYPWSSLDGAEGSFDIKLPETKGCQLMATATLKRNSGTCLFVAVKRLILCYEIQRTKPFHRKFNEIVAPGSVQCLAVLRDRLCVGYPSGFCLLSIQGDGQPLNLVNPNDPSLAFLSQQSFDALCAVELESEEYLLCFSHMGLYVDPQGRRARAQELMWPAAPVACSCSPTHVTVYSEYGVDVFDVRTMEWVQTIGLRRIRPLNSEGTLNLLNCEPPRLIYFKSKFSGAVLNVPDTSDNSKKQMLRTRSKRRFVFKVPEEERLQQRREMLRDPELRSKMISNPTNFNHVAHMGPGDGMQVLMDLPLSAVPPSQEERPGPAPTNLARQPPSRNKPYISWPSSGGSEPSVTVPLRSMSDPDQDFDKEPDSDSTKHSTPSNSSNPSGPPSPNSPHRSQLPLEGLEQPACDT
Outline: as §1

[3] = target: T3, RIPK5 (Homo sapiens, UniProt Q6XUX3)
T3 construct: purchased Reaction Biology Corp
T3 sequence (Q6XUX3 1-929): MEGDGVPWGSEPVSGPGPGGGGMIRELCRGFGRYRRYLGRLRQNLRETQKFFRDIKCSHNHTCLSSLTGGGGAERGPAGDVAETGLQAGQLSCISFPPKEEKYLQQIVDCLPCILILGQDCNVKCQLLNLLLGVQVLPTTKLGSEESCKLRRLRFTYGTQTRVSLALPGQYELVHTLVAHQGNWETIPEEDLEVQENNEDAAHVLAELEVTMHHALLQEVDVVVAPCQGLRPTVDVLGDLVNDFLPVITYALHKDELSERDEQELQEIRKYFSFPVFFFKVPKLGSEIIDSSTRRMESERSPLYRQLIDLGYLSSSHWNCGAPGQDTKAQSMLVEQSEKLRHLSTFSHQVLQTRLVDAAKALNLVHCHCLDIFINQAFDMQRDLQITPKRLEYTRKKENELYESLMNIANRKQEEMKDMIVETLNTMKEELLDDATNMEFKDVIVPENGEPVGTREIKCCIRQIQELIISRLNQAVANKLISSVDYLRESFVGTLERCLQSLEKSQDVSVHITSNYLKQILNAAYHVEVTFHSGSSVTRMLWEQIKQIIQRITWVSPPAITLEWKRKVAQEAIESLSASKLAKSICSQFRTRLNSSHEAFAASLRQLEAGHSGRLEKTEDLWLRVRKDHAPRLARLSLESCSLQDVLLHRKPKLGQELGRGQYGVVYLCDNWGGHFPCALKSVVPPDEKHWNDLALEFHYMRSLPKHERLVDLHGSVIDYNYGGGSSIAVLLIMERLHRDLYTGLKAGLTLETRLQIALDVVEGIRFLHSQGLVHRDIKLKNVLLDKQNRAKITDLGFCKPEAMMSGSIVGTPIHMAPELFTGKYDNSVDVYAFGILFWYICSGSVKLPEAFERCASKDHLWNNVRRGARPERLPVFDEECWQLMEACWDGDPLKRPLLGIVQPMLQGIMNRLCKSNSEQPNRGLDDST
Outline: as §1

[4] = target: T4, TSSK2 (Homo sapiens, UniProt Q96PF2)
T4 construct: purchased Reaction Biology Corp
T4 sequence (Q96PF2 1-358): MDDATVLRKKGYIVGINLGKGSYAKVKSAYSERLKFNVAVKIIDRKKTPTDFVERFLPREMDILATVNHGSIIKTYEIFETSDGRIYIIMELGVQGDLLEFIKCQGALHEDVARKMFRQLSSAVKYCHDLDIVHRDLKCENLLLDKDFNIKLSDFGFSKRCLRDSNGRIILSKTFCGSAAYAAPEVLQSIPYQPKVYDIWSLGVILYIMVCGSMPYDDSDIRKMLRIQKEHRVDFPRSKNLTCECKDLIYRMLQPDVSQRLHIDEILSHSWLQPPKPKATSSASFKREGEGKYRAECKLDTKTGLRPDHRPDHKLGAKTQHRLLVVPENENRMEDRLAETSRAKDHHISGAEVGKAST
Outline: as §1

[5] = read-out: % Enzyme Activity (relative to DMSO controls) AVG
[6] = read-out: % Enzyme Activity (relative to DMSO controls) Data 1
[7] = read-out: % Enzyme Activity (relative to DMSO controls) Data 2

Molecule CC(C)(C)C(=O)N1N=CC[C@H]1c1ccccc1 [GSK′963] has a remaining activity at 10 µM [1, 5] of 97.7%, a remaining activity at 10 µM [1, 6] of 96.9% and a remaining activity at 10 µM [1, 7] of 98.4%. For the same molecule, the remaining activity at 10 µM [2, 5] was 106%, the remaining activity at 10 µM [2, 6] was 109% and the remaining activity at 10 µM [2, 7] was 102%. For the same molecule, the remaining activity at 10 µM [3, 5] was 101%, the remaining activity at 10 µM [3, 6] was 102% and the remaining activity at 10 µM [3, 7] was 99.6%. For the same molecule, the remaining activity at 10 µM [4, 5] was 104%, the remaining activity at 10 µM [4, 6] was 102% and the remaining activity at 10 µM [4, 7] was 105%.
